Like-named read-outs stand apart in the source and are kept apart here. Some results are limits rather than exact numbers.

One series deals with inbred mouse strains. The experiment in a line: APAP-induced liver toxicity in a panel of inbred mouse strains (serum ALT activity). Type of series: in vivo. Conditions: single 300 mg/kg intraperitoneal injection, 6 hour. How it is done:
A panel of inbred mouse strains was studied using an integrated genetic, transcriptional and metabolomic approach in order to better characterize genetic factors affecting susceptibility to APAP-induced liver toxicity.
The liver toxic effect of APAP was assessed by measuring the serum alanine aminotransferase (ALT) activity after a single administration of toxic level (300 mg/kg, intraperitoneal injection) APAP.

In a further series the test system is hepatic glutathione. Particulars: after a toxic dose; James et al. 2003; cited from earlier work.
In the next series the test system is APAP poisoning. Conditions: cited from earlier work.
The test system of series [1] is APAP-induced liver toxicity in inbred strains with intact or deficient Bhmt2 activity. The series can be described thus: Strain-specific effect of SMM or SAM co-administration on APAP-induced liver toxicity. Type of series: in vivo, mouse. Conditions: 3 hour after APAP. Here is the method:
The availability of two inbred strains with allelic variants that eliminate Bhmt2 enzyme activity enabled the hypothesis that Bhmt2 is a susceptibility factor for APAP-induced liver toxicity to be tested in vivo. The effect that co-administration of SAM or SMM, which act on sequential steps in the methionine/GSH biosynthesis pathway, had on APAP-induced liver toxicity in strains with intact or deficient Bhmt2 activity was analyzed.
Hepatic glutathione (GSH) and methionine levels and the serum ALT were measured 3 hour after APAP administration to inbred strains. The R and S in the lower panel indicate whether SMM or SAM co-administration should have a protective (Rescue) effect, or not have a beneficial (Susceptible) effect on APAP-induced liver toxicity, respectively.

For the next series, the target named is T1, Bhmt2 (Homo sapiens, UniProt Q9H2M3).
T1 sequence (Q9H2M3 1-363): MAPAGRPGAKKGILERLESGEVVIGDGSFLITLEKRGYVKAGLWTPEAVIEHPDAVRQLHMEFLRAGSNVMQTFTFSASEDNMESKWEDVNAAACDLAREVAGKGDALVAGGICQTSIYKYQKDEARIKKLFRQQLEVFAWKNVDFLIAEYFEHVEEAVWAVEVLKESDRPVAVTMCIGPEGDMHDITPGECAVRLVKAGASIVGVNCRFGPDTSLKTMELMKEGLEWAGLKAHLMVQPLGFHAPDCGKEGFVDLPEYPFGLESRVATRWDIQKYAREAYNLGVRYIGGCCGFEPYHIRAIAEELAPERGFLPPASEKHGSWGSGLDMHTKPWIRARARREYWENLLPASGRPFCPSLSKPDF
Particulars: Szegedi et al. 2008; cited from earlier work.

Series [2] has as its system APAP-induced hepatotoxicity. Conditions: cited from earlier work.

Take `CC(=O)Nc1ccc(O)cc1` [APAP, Acetaminophen]: the “liver injury (serum ALT activity)” value with inbred mouse strains (SJL/J mice) is “resistant phenotype”. For the same compound, in the series with inbred mouse strains (all strains other than SJL/J), the “liver injury (serum alanine aminotransferase (ALT) activity)” value is “Significant liver injury”. The “depletion of hepatic glutathione” value in the series with hepatic glutathione was at most 90%.
With `CC(=O)N[C@@H](CS)C(=O)O` [N-acetylcysteine], the tolerability entry with APAP poisoning (oral administration) is “poorly tolerated”. Moreover, the “antidote effect in severe and ongoing APAP poisoning” value in the series on APAP poisoning (patients) was “effective antidote”.
As to `C[S+](CC[C@H](N)C(=O)O)C[C@H]1O[C@@H](n2cnc3c(N)ncnc32)[C@H](O)[C@@H]1O` (stereo partly drawn) [SAM, S-adenosylmethionine], the “effect of co-administration on APAP-induced liver toxicity (hepatic GSH, methionine, serum ALT)” value in series [1] (all strains) was “protective effect in all strains”. Further, the “Bhmt2 activity with the substance as methyl donor” value (“Bhmt2 activity with the substance” for short) on Bhmt2 is listed as “very low activity”. In series [2] (C57BL/6J mice, APAP), the “hepatic GSH levels” value was “preserve hepatic GSH levels”. The “attenuation of APAP-induced hepatotoxicity” value in series [2] (C57BL/6J mice) and in series [2] (previously shown) was “attenuate APAP-induced hepatotoxicity” in each case.
Consider `C[S+](C)CC[C@H](N)C(=O)[O-]` [SMM, S-methylmethionine], for which the results for the “effect of co-administration on APAP-induced liver toxicity (hepatic GSH, methionine, serum ALT)” value in series [1] (strains with active Bhmt2 enzyme (Gly27 allele)) and in series [1] (strains with inactive (Ser27 allele) Bhmt2 enzyme) were “protective effect” and “not in strains with inactive (Ser27 allele) enzyme”, respectively. Further, the “Bhmt2 activity with the substance” value at Bhmt2 is reported as “specific methyltransferase”.
For the compound `C[N+](C)(C)CC(=O)O` [betaine], the “Bhmt2 activity with the substance” value at Bhmt2 is on record as “cannot use betaine as the methyl donor”.
Consider `CSCC[C@H](N)C(=O)O` [methionine], for which the “attenuation of APAP-induced hepatotoxicity” value in series [2] (previously shown) is “attenuate APAP-induced hepatotoxicity”.

The values above are taken from US8685956B2, “Compositions and methods for reducing the risk of agent-induced liver toxicity” (The Board of Trustees of The University of Illinois, priority 2009, dated 2014).
